According to patent US11963996B2, “Method of treating knee pain” (ORTHOTROPHIX, Inc., priority 2018, dated 2024):
“Also recorded” adds a separate entry of the source.

Columns and labels:
[1] = system: rat long bone fracture; details: cited from earlier work
[2] = system: subjects with bilateral patello-femoral knee osteoarthritis; assay: Same study: MRI-based periarticular bone area and 3D bone shape (AAM, B Score); format: in vivo, human
Description: The 3D bone shape change can be quantified using active appearance modelling (AAM). AAM enables encoding of the 3D shape and appearance of an object using multiple anchor points (“principal components”) on the surface of the object. These principal components describe computationally the specific 3D shape of the object. The use of AAM to represent femur, tibia, and patella shapes has been described in detail by Neogi, et. al. (Neogi 2013).
The MRI images of each knee used in cartilage thickness measurement were used to measure surface area of the periarticular bone in lateral and medial femur, lateral and medial trochlear femur, lateral and medial tibia, as well as lateral and medial patella. Bone shape scores in femur, trochlear femur, tibia, and patella were also measured using the same MRI images.
(§1) All KOOS subscale scores, WOMAC Total score and subscale scores, MRI-based patello-femoral and tibiofemoral cartilage thickness, and MRI-based periarticular bone area and 3D bone shape were analyzed.
(§2) MRI images were provided to central readers cartilage and periarticular bone measures. Central readers were blind as to treatment assignment.
Bone area and 3D shape of periarticular bone were analyzed using AAM software developed by iMorphics (www.imorphics.com) specifically for assessing these parameters in the osteoarthritic knee.
(§3) Statistical analyses were carried out using a two-sided paired t-test at the 5% level of significance. The outcome variables were the differences of the change of the score of each subscale of KOOS, change of cartilage thickness, periarticular bone area, and 3D bone shape score (“B Score”) change from baseline to 6 and 12 months in the treated knee (“Index Knee”) compared with the placebo-exposed knee (“Control Knee”).
Change in periarticular bone area and 3D bone shape as measured by MRI was also compared between Index and Control Knee groups. It should be noted that there were eight subjects whose MRI images were of insufficient quality and were excluded from bone area and shape analyses. Therefore, each evaluable treatment arm consisted of 85 knees.

[3] = system: defects in human molar; details: in vivo; cited from earlier work
[4] = system: cultured neonatal mouse calvaria; details: cited from earlier work
[5] = system: subjects with bilateral patello-femoral knee osteoarthritis; assay: Example 2: re-analysis of the study with stricter MRI image qualification (79 subjects); format: in vivo, human
Description: After the data analyses in EXAMPLE 1, a few more MRI images were questioned with regard to their technical quality to enable assessment of periarticular bone shape change over time. In order to assure the quality of the overall analysis results, a stricter qualification standard was applied to the MRI images used in EXAMPLE 1, and requalification was performed. Seventy-nine (79) subjects were requalified. The MRI knee images of these subjects were re-analyzed for their periarticular bone shape changes, as well as their correlations with the changes of tibiofemoral cartilage thickness and pain, respectively, in the same manner as described in EXAMPLE 1.
The requalified 79 subjects were included in the efficacy analysis per the Statistical Analysis Plan.

[6] = system: subjects with bilateral patello-femoral knee osteoarthritis; assay: Same study: MRI-based patello-femoral and tibiofemoral cartilage thickness; format: in vivo, human
Description: (§4) Subjects returned to their respective study sites at 3, 6 and 12 months after the first dosing day for follow-up evaluations. In addition, the study sites monitored the subject's condition through telephone contact 9 months after the first dosing day. During the 3, 6, and 12 months post-treatment, subjects were evaluated on site with physical examinations, vital signs, serum chemistries, as well as completing patient-reported outcomes including the KOOS. Adverse events and concomitant medications were recorded. MRIs of both knees were obtained during the 6 and 12-month visits.
as §1, §2, §3

[7] = system: full-thickness chondral defect; details: in vivo; cited from earlier work
[8] = system: healthy volunteers; assay: GLP toxicology studies and Phase 1 clinical study with healthy volunteers; details: human, in vivo
Description: In non-clinical safety and efficacy studies, TPX-100 was first tested for its bone formation activity.

[9] = system: rat dental defect; details: in vivo; cited from earlier work
[10] = system: subjects with bilateral patello-femoral knee osteoarthritis; assay: Same study: safety and tolerability; format: in vivo, human
Description: The study was divided into Part A and Part B. The Part A was designed to evaluate safety of intra-articular (I.A.) administration of TPX-100 at different dosing levels (20, 50, 100, or 200 mg per injection in sequential cohorts) in the subjects with osteoarthritis of the knees and to select a dose for Part B. Part B was to evaluate safety and efficacy of the selected dose of TPX-100.
Subjects in Part A were enrolled in sequential cohorts and randomized to receive 20, 50, 100 or 200 mg of TPX-100 in one knee (Index Knee) and identical placebo in the contralateral (Control) knee. Subjects, sites and sponsor and central MRI readers were blinded as to treatment assignment. A Safety Review Committee (SRC) evaluated safety in each dosing cohort. The SRC assessed safety and determined whether the next higher dosing regimen could be enrolled. All dosing cohorts in Part A were completed and analyzed with regard to safety prior to dose selection and initiation of Part B.
On the first dosing day, the randomized subjects were assessed by physical examinations and vital signs. Further, they completed the Knee injury and Osteoarthritis Outcome Score (KOOS), which includes the Western Ontario and McMaster Universities Osteoarthritis Index (WOMAC). The KOOS questionnaire assesses knee-specific activities of daily living, sports and recreation, knee-related quality of life, other symptoms such as stiffness, and knee pain. The KOOS has been used extensively in longitudinal studies of knee osteoarthritis. After assessments were completed, subjects received one intra-articular injection in each knee, with each injection prepared from the vial(s) marked for that knee. One knee received TPX-100, and the contralateral knee received placebo with subject, site, and sponsor blinded to treatment assignment. Subjects were monitored for adverse events during the injections and for a few hours after the injections. Vital signs were also monitored after the injections.
On the 7th, 14th, and 21st days after the first dosing, subjects received the second, third, and fourth (last) dosing of the same study materials, respectively. Safety and adverse event assessments were obtained as on the first dosing day.
as §4

[11] = Example 2, 79 requalified subjects, Index vs Control knees, 6 or 12 month, or both
[12] = Example 2, Index vs Control Knees, 12 months
[13] = Index vs Control Knees, 6 or 12 months

Substance: TPX-100: synthetic peptide consisting of 23 amino acids, TDLQERGDNDISPFSGDGQPFKD, derived from human Matrix Extracellular Phosphoglycoprotein (MEPE)
- Tolerability in in vivo bone formation and dentin formation studies ([1]; rat bone formation and dentin formation studies): well tolerated
- Bone fracture healing ([1]; subcutaneous injection): acceleration of bone fracture healing
- Mean bone shape change rate ([2]; Index Knees, first 6 months): 0.03
- Periarticular bone area change, lateral femur, lateral patella and medial patella ([2]; Index Knees, first 6 months): nearly zero in all regions
- 3D periarticular bone shape change of femur (B score) ([2]; Index vs Control Knees, 6 and 12 months (p=0.005 and 0.007)): statistically significant decrease in shape change compared to Control Knees; also recorded: statistically significant (p<0.05) difference in favor of Index Knees
- Periarticular bone area increase, medial femur ([2]; Index vs Control Knees, 6 months): less periarticular bone area increase as compared to Control Knees at 6 months, with a trend toward statistical significance (p=0.08); also recorded: less pathological bone area increase as compared to Control Knee at 6 months, with a trend toward statistical significance (p=0.08)
- Periarticular bone area increase, lateral femur, lateral and medial patella ([2]; Index vs Control Knees, 12 months): slower increase at 12 months compared with Control Knees
- 3D periarticular bone shape changes in tibia and patella ([2]; Index vs Control Knees, no statistically significant difference): slower changes in Index Knees as compared to Control Knees
- 3D bone shape change of patella in pain frequency responder group ([2]; responders, through 12 months): remained approximately zero through 12 months; also recorded: eventually no change in the 3D bone shape in patella
- Dentin formation in defects in human molar [3]: reparative dentin formation
- Bone formation activity in calvaria culture [4]: thickening of cultured neonatal mouse calvaria
- KOOS ADL improvement [5, 11]: clinically meaningful and statistically significant (p<0.05) improvements
- KOOS Knee-related QOL improvement [5, 11]: clinically meaningful and statistically significant (p<0.05) improvements
- WOMAC Function improvement [5, 11]: clinically meaningful and statistically significant (p<0.05) improvements
- 3D periarticular femur bone shape change (bone shape score) ([5]; Example 2, Index vs Control Knees, 6 and 12 months): statistically significant (p<0.05) delay of femur bone shape change
- KOOS Pain subscale improvement [5, 12]: clinically meaningful improvement in Index Knees with a trend towards statistical significance (p<0.09)
- Pain bending knee fully (KOOS Pain question) [5, 12]: significantly improved (p<0.05)
- Pain frequency (KOOS Pain question) [5, 12]: significantly improved (p<0.05)
- Pain going up or down stairs (KOOS Pain question) [5, 12]: significantly improved (p<0.05)
- 3D bone shape change in patella in pain frequency responders ([5]; Example 2, responders): eventually no change in the 3D bone shape in patella
- Pain frequency in responders, baseline to 12 months ([5]; Example 2, responders to TPX-100): decreased from daily pain at baseline to semi-monthly pain at 12 months
- Overall tibiofemoral cartilage thickness change from baseline [6, 13]: not measurably different between Index and Control Knees
- Patello-femoral (patella) cartilage thickness change from baseline by MRI (primary endpoint) [6, 13]: no statistically significant difference between Index vs. Control Knees; also recorded: no measurable difference between Index and Control Knees
- Tibiofemoral cartilage thickness change in TPX-100-treated responder knees ([6]; knees with clinically meaningful functional improvements, baseline to 12 months): significantly increased
- Safety and tolerability in goats [7]: safe and well-tolerated
- Safety in GLP toxicology studies and Phase 1 study [8]: Safety of the TPX-100 peptide was further confirmed
- Dentin formation [9]: promote dentin formation
- Safety and tolerability ([10]; 200 mg per dose, 4 once-weekly intra-articular injections): safe and well tolerated
- Dose-limiting toxicities ([10]; Part A, 20, 50, 100 and 200 mg per injection): no dose-limiting toxicities
- Severe adverse events related to treatment ([10]; in vivo): no severe adverse events that were related to TPX-100 treatment
- Severity of treatment-related adverse events ([10]; in vivo): mild or moderate, transient
